3 molecules from patent US9707244B2, “Compositions and methods for treating conditions that affect epidermis” (Gencia Corporation, priority 2013, dated 2017) can be followed below.

The subject of the data set is EpiDerm Full Thickness 400 (EFT-400) tissues. Description: Mattek full-thickness skin model (EFT-400) skin thickness. To be noted: 14 days; average over the three corticosteroids (100 nM dexamethasone, 50 nM betamethasone, 10 nM Clobetasol); p<0.001. The data set is classed as cell-based. The method, then: Following the protocol of Schoepe, we used the FTSM model to determine if co-treatment with Mitocreatine would reduce the loss in skin thickness produced by glucocorticoids.
2.5 mL of EpiDerm Full Thickness 400 (EFT-400) medium was dispensed into each well of the four 6-well plates aseptically in the tissue culture hood. The plates containing the EFT-400 tissues were removed from their plastic packaging and transferred using sterile forceps into the 6-well plates containing the 2.5 mL of EFT-400 media, making sure that no agarose adheres to the insert and that the media makes full contact with the underside of the tissue insert membrane (no air bubbles under the insert). The apical surface of the tissue should remain exposed to air (no media should be added to the side of the insert).
The tissues were equilibrated overnight at 37° C., 5% CO2. Treatment conditions are listed below in Table 5.
Day 2-13: The plates were visually examined and the media containing the test compounds was replenished each day.
Day 15: The inserts were dislodged from the support and the tissue carefully removed from the support with a scalpel.
The tissues were placed in 50 mL conical tubes containing 10% phosphate buffered formalin and sent for sectioning, histological processing and H&E staining Slides were visualized using a Leica Stereoscope equipped with a digital camera. Images were acquired and measured using ExoLabs software. Data was tabulated in Excel and the results were analyzed.

`C[C@H]1C[C@H]2[C@@H]3CCC4=CC(=O)C=C[C@]4(C)[C@@]3(F)[C@@H](O)C[C@]2(C)[C@@]1(O)C(=O)CCl` [Clobetasol]: the “reduction in skin thickness (FTSM)” value amounted to 26%.

With `C[C@@H]1C[C@H]2[C@@H]3CCC4=CC(=O)C=C[C@]4(C)[C@@]3(F)[C@@H](O)C[C@]2(C)[C@@]1(O)C(=O)CO` [dexamethasone], the “reduction in skin thickness (FTSM)” value is on record as 26%. The figure for `C[C@H]1C[C@H]2[C@@H]3CCC4=CC(=O)C=C[C@]4(C)[C@@]3(F)[C@@H](O)C[C@]2(C)[C@@]1(O)C(=O)CO` [betamethasone] is 26%.
